Source: patent US9302991B2, “Arylamide derivatives as TTX-S blockers” (RaQualia Pharma Inc., priority 2010, dated 2016)

Legend:
[1] = biological target: T1, human Nav1.7 channels (Homo sapiens, UniProt Q15858); assay: FRET assay, human Nav1.7 (EFS on FDSS); format: cell-based; settings: CHO cells expressing human Nav1.7, read-out: IC50 against Nav1.7
T1 construct: expressed in transfected cells; host or cells: CHO
Summary of the method: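 IC50 was derived from normalized 440 nm fluorescence ratios of the EFS-evoked membrane-potential response read on FDSS. Recombinant CHO cells were sequentially dye-loaded with coumarin/oxonol FRET pair at room temperature in pH 7.4 buffer before compound addition.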

[2] = biological target: T2, human Nav1.3 channels (Homo sapiens, UniProt Q9NY46); assay: FRET assay, human Nav1.3 (EFS on FDSS); format: cell-based; settings: HEK293 cells expressing human Nav1.3, read-out: IC50 against Nav1.3
T2 construct: expressed in transfected cells; host or cells: HEK293
T2 sequence (Q9NY46 whole entry): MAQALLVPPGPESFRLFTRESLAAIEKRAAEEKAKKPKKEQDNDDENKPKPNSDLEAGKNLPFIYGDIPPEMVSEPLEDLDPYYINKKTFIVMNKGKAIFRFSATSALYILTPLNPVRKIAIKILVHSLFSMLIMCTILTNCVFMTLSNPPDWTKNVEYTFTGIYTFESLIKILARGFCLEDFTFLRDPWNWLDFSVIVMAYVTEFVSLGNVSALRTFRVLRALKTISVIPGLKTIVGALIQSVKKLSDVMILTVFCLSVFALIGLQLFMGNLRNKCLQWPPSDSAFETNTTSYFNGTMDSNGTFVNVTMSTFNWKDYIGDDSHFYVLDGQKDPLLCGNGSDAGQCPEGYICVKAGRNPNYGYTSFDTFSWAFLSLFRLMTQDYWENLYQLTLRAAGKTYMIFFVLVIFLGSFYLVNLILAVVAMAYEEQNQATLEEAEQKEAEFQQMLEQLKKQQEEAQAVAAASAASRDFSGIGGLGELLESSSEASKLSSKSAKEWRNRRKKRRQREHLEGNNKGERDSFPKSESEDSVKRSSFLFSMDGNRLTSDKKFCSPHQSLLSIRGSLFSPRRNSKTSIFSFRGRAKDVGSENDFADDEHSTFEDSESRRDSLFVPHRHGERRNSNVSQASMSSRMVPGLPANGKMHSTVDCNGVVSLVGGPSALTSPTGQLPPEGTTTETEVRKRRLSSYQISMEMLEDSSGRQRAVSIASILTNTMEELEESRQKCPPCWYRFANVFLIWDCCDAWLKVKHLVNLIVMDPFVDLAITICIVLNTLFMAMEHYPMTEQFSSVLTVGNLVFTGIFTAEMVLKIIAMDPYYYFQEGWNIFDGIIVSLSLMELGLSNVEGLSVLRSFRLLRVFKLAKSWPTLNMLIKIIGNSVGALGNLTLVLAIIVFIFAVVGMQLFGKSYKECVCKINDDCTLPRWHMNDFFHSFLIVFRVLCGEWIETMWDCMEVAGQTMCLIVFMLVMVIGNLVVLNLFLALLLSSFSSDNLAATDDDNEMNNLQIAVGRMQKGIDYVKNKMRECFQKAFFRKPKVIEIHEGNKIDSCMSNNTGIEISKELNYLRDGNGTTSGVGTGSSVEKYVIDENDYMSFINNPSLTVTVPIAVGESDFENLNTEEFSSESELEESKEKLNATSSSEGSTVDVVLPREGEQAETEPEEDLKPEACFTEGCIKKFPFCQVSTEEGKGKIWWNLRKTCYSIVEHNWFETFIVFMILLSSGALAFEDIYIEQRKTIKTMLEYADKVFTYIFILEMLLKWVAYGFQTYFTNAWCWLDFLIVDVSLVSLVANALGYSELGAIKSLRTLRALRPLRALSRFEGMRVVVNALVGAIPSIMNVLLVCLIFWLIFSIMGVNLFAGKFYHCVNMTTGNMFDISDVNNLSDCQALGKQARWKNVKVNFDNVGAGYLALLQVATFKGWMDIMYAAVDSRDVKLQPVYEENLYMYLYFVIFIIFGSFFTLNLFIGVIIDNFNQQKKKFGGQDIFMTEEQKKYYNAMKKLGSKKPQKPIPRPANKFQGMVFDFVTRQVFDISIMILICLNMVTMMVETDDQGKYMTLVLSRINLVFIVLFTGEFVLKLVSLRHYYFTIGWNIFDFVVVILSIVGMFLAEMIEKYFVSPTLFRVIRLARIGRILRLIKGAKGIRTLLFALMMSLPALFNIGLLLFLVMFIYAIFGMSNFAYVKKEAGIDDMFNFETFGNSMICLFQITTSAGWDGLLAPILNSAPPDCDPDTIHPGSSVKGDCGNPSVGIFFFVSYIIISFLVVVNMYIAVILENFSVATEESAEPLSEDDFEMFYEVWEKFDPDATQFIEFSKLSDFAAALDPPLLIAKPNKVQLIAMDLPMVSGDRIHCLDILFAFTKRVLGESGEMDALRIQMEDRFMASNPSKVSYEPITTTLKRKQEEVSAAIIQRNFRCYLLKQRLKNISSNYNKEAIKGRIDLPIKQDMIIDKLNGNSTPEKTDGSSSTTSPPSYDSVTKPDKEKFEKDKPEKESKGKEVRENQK
Summary of the method: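 HEK293 cells expressing the channel, loaded with 10 microM CC2-DMPE then 15 microM DiSBAC2(3) plus 0.555 mM VABSC-1 in pH 7.4 HEPES buffer at room temperature. Membrane potential changes evoked by electrical field stimulation after compound addition; IC50 from 440 nm-normalized FRET ratios.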

T1 sequence (Q15858 whole entry): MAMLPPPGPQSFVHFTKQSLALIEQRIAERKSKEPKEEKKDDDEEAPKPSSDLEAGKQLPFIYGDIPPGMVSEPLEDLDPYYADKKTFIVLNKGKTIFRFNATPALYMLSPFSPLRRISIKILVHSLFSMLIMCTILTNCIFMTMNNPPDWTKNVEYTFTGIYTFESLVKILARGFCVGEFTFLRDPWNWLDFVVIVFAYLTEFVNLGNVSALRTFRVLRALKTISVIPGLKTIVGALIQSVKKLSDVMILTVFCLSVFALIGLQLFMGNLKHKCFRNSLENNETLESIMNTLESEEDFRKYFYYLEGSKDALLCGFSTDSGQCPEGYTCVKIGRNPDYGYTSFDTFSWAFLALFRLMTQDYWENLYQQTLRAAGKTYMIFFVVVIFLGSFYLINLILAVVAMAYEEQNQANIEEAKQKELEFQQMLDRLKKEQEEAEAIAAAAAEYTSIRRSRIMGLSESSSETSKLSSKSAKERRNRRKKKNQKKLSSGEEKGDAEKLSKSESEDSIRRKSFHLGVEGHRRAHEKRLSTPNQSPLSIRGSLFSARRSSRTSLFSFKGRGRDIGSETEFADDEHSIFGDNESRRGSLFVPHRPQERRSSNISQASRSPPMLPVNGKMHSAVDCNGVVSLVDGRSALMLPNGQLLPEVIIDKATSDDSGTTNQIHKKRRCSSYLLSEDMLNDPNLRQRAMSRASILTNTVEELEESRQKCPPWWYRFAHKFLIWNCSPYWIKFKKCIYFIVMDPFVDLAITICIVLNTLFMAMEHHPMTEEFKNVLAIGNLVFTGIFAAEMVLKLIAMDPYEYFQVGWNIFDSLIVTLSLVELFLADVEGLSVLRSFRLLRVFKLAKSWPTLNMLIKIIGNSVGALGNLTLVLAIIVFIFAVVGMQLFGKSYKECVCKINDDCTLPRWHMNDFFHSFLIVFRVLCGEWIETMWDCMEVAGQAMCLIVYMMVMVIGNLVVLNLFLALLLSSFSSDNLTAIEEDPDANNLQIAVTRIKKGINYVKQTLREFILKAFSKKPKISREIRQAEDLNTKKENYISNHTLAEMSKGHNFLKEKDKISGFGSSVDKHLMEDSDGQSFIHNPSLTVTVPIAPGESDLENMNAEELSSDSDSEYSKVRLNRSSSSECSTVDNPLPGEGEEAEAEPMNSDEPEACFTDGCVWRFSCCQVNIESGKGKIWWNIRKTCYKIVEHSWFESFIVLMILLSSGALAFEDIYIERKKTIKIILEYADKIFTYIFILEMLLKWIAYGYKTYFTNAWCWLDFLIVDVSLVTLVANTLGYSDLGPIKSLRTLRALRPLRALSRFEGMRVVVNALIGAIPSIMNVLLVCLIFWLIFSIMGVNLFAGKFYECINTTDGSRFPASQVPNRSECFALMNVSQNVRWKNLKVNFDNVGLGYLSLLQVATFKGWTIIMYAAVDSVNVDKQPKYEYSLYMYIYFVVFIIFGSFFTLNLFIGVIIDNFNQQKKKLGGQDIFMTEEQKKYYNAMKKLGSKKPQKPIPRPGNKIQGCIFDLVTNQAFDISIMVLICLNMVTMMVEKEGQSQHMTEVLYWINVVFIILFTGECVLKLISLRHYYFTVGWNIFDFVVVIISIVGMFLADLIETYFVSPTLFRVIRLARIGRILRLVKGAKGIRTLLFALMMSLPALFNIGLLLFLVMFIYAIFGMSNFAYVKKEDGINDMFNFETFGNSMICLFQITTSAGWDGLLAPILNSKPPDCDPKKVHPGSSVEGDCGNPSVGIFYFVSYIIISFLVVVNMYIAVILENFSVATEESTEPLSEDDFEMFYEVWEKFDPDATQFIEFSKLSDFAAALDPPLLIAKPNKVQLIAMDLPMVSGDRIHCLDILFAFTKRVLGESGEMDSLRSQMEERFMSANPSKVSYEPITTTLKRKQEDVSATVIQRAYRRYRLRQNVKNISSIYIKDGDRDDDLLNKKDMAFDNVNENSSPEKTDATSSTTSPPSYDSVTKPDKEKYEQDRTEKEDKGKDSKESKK

| IC50 [1] [µM] | IC50 [2] [µM] | Structure (SMILES) |
| --- | --- | --- |
| < 1 | < 1 | Cc1cc(C(=O)NCc2ccc(OC(F)(F)F)c(C)c2)nc(NC(=O)C2CC2)n1 [Example 811, 2-(cyclopropanecarboxamido)-6-methyl-N-(3-methyl-4-(trifluoromethoxy)benzyl)pyrimidine-4-carboxamide] |
| < 1 | < 1 | Cc1cc(C(=O)NC(C)c2cnc(OCC(F)(F)F)c(Cl)c2)cc(NC(=O)C2CC2)n1 (single isomer, unassigned) [Example 832, N-(1-(5-chloro-6-(2,2,2-trifluoroethoxy)pyridin-3-yl)ethyl)-2-(cyclopropanecarboxamido)-6-methylisonicotinamide] |
| < 1 | < 1 | Cc1cc(C(=O)NCc2cnc(OCC(F)(F)F)c(C)c2)cc(NC(=O)CC2CC2)n1 [Example 954, 2-(2-cyclopropylacetamido)-6-methyl-N-((5-methyl-6-(2,2,2-trifluoroethoxy)pyridin-3-yl)methyl)isonicotinamide] |
| < 1 | < 1 | CCC(=O)Nc1cc(C(=O)NCc2cnc(OCC(F)(F)F)c(Br)c2)ccn1 [Example 895, N-((5-bromo-6-(2,2,2-trifluoroethoxy)pyridin-3-yl)methyl)-2-propionamidoisonicotinamide] |
| < 1 | < 1 | Cc1cc(C(C)NC(=O)c2ccnc(NC(=O)C3CC3)c2)cnc1OCC(F)(F)C(F)F (single isomer, unassigned) [Example 926, 2-(cyclopropanecarboxamido)-N-(1-(5-methyl-6-(2,2,3,3-tetrafluoropropoxy)pyridin-3-yl)ethyl)isonicotinamide] |
| < 1 | < 1 | Cc1cc(C(=O)NCc2cccc(OC(F)(F)F)c2)cc(NC(=O)C2CC2)n1 [Example 836, 2-(cyclopropanecarboxamido)-6-methyl-N-(3-(trifluoromethoxy)benzyl)isonicotinamide] |
| < 1 | < 1 | Cc1cc(C(=O)NC(C)c2cnc(OCC(F)(F)F)c(C)c2)cc(NC(=O)C2CC2)n1 (single isomer, unassigned) [Example 823, 2-(cyclopropanecarboxamido)-6-methyl-N-(1-(5-methyl-6-(2,2,2-trifluoroethoxy)pyridin-3-yl)ethyl)isonicotinamide] |
| < 1 | < 1 | CCC(=O)Nc1cc(C(=O)NCc2cnc(OCC(F)F)c(CC)c2)ccn1 [Example 930, N-((6-(2,2-difluoroethoxy)-5-ethylpyridin-3-yl)methyl)-2-propionamidoisonicotinamide] |
| < 1 | < 1 | Cc1cc(C(=O)NCc2ccc(OCC(F)(F)F)c(C)c2)cc(NC(=O)C2CC2)n1 [Example 831, 2-(cyclopropanecarboxamido)-6-methyl-N-(3-methyl-4-(2,2,2-trifluoroethoxy)benzyl)isonicotinamide] |
| < 1 | < 1 | Cc1c(CNC(=O)c2ccnc(NC(=O)C(C)C)c2)cccc1C(F)(F)F [Example 816, 2-isobutyramido-N-(2-methyl-3-(trifluoromethyl)benzyl)isonicotinamide] |
| < 1 | < 1 | CCc1cc(CNC(=O)c2cc(C)nc(NC(=O)C3CC3)c2)cnc1OCC(F)(F)F [Example 825, 2-(cyclopropanecarboxamido)-N-((5-ethyl-6-(2,2,2-trifluoroethoxy)pyridin-3-yl)methyl)-6-methylisonicotinamide] |
| < 1 | < 1 | COc1c(CNC(=O)c2cc(C)nc(NC(=O)C(C)C)c2)cccc1C(F)(F)F [Example 880, 2-isobutyramido-N-(2-methoxy-3-(trifluoromethyl)benzyl)-6-methylisonicotinamide] |
| < 1 | < 1 | Cc1cc(C(=O)NCc2cc(C(F)(F)F)ccc2F)cc(NC(=O)C2CC2)n1 [Example 975, 2-(cyclopropanecarboxamido)-N-(2-fluoro-5-(trifluoromethyl)benzyl)-6-methylisonicotinamide] |
| < 1 | < 1 | CC(=O)Nc1cc(C(=O)NC(C)c2cnc(OCC(F)(F)C(F)F)c(C)c2)cc(C)n1 (single isomer, unassigned) [Example 927, 2-acetamido-6-methyl-N-(1-(5-methyl-6-(2,2,3,3-tetrafluoropropoxy)pyridin-3-yl)ethyl)isonicotinamide] |
| < 1 | < 1 | Cc1cc(C(C)NC(=O)c2ccnc(NC(=O)C3CC3)n2)cnc1OCC(F)(F)C(F)F (single isomer, unassigned) [Example 906, 2-(cyclopropanecarboxamido)-N-(1-(5-methyl-6-(2,2,3,3-tetrafluoropropoxy)pyridin-3-yl)ethyl)pyrimidine-4-carboxamide] |

The next lines start with the compound.

| Structure (SMILES) | IC50 [1] [µM] | IC50 [2] [µM] |
| --- | --- | --- |
| Cc1cc(C(=O)NCc2cccc(OC(F)(F)F)c2)cc(NC(=O)C(C)C)n1 [Example 528, 2-isobutyramido-6-methyl-N-(3-(trifluoromethoxy)benzyl)isonicotinamide] | < 1 | < 1 |
| Cc1cc(CNC(=O)c2ccnc(NC(=O)C3CC3)c2)cnc1OCC(F)(F)F [Example 369, 2-(cyclopropanecarboxamido)-N-((5-methyl-6-(2,2,2-trifluoroethoxy)pyridin-3-yl)methyl)isonicotinamide] | < 1 | < 1 |
| CC(=O)Nc1cc(C(=O)NCc2ccc(OC(F)(F)F)c(C)c2)ccn1 [Example 804, 2-acetamido-N-(3-methyl-4-(trifluoromethoxy)benzyl)isonicotinamide] | < 1 | < 1 |
| Cc1cc(C(=O)NC(C)c2cnc(OCC(F)(F)F)c(C)c2)cc(NC(=O)C(C)C)n1 (single isomer, unassigned) [Example 520, 2-isobutyramido-6-methyl-N-(1-(5-methyl-6-(2,2,2-trifluoroethoxy)pyridin-3-yl)ethyl)isonicotinamide] | < 1 | < 1 |
| Cc1cc(C(C)NC(=O)c2ccnc(NC(=O)C3CC3)n2)cnc1OCC(F)F (single isomer, unassigned) [Example 558, 2-(cyclopropanecarboxamido)-N-(1-(6-(2,2-difluoroethoxy)-5-methylpyridin-3-yl)ethyl)pyrimidine-4-carboxamide] | < 1 | < 1 |
| CCC(=O)Nc1cc(C(=O)NCc2ccc(OCC(F)(F)C(F)(F)F)nc2)cc(C)n1 [Example 643, 2-methyl-N-((6-(2,2,3,3,3-pentafluoropropoxy)pyridin-3-yl)methyl)-6-propionamidoisonicotinamide] | < 1 | < 1 |
| COc1nc(OCC(F)(F)F)ccc1CNC(=O)c1ccnc(NC(C)=O)c1 [Example 148, 2-acetamido-N-((2-methoxy-6-(2,2,2-trifluoroethoxy)pyridin-3-yl)methyl)isonicotinamide] | < 1 | < 1 |
| CCC(=O)Nc1cc(C(=O)NCc2ccc(OC(F)(F)F)c(C)c2)ccn1 [Example 805, N-(3-methyl-4-(trifluoromethoxy)benzyl)-2-propionamidoisonicotinamide] | < 1 | < 1 |
| CCC(=O)Nc1cc(C(=O)NCc2cc(C)cc(OC(F)(F)F)c2)cc(C)n1 [Example 600, 2-methyl-N-(3-methyl-5-(trifluoromethoxy)benzyl)-6-propionamidoisonicotinamide] | < 1 | < 1 |
| CC(=O)Nc1cc(C(=O)NC(C)c2cnc(OCC(F)(F)F)c(C)c2)ccn1 (single isomer, unassigned) [Example 85, 2-acetamido-N-(1-(5-methyl-6-(2,2,2-trifluoroethoxy)pyridin-3-yl)ethyl)isonicotinamide] | < 1 | < 1 |
| Cc1cc(C(C)NC(=O)c2ccnc(NC(=O)C3CC3)c2)cnc1OCC(F)(F)F (single isomer, unassigned) [Example 89, 2-(cyclopropanecarboxamido)-N-(1-(5-methyl-6-(2,2,2-trifluoroethoxy)pyridin-3-yl)ethyl)isonicotinamide] | < 1 | < 1 |
| CCC(=O)Nc1cc(C(=O)NC(C)c2ccc(OCC(F)(F)F)cc2)cc(C)n1 (single isomer, unassigned) [Example 136, 2-methyl-6-propionamido-N-(1-(4-(2,2,2-trifluoroethoxy)phenyl)ethyl)isonicotinamide] | < 1 | < 1 |
| O=C(NCc1cnc(OCC(F)(F)F)c(Cl)c1)c1ccnc(NC(=O)C2CC2)n1 [Example 411, N-((5-chloro-6-(2,2,2-trifluoroethoxy)pyridin-3-yl)methyl)-2-(cyclopropanecarboxamido)pyrimidine-4-carboxamide] | < 1 | < 1 |
| CC(=O)Nc1cc(C(=O)NCc2cnc(OCC(F)(F)F)c(Br)c2)ccn1 [Example 762, 2-acetamido-N-((5-bromo-6-(2,2,2-trifluoroethoxy)pyridin-3-yl)methyl)isonicotinamide] | < 1 | < 1 |
| CCC(=O)Nc1cc(C(=O)NCc2cccc(C(F)(F)F)c2)cc(C)n1 [Example 127, 2-methyl-6-propionamido-N-(3-(trifluoromethyl)benzyl)isonicotinamide] | < 1 | < 1 |
| CC(=O)Nc1nc(C)cc(C(=O)NCc2cnc(OCC(F)(F)F)c(C)c2)n1 [Example 363, 2-acetamido-6-methyl-N-((5-methyl-6-(2,2,2-trifluoroethoxy)pyridin-3-yl)methyl)pyrimidine-4-carboxamide] | < 1 | < 1 |
